Experimental data as given in PubChem BioAssay (NCI).
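96-well plates; 48 h exposure; 5 concentrations. Endpoints by linear interpolation between flanking doses. Not reached: highest tested concentration assigned. TGI marks complete inhibition of growth.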

Columns and labels:
Assay in all cases: NCI-60 cell line screen, 48 h
IGROV1 ovarian = system: IGROV1 ovarian
SR leukemia = system: SR leukemia
SNB-19 CNS = system: SNB-19 CNS
OVCAR-3 ovarian = system: OVCAR-3 ovarian
COLO 205 colon = system: COLO 205 colon
SNB-78 CNS = system: SNB-78 CNS
SK-OV-3 ovarian = system: SK-OV-3 ovarian
HL-60(TB) leukemia = system: HL-60(TB) leukemia
EKVX NSCLC = system: EKVX NSCLC
SK-MEL-5 melanoma = system: SK-MEL-5 melanoma
A549 NSCLC = system: A549 NSCLC
OVCAR-8 ovarian = system: OVCAR-8 ovarian
DMS 114 small cell lung = system: DMS 114 small cell lung
SK-MEL-28 melanoma = system: SK-MEL-28 melanoma
CAKI-1 renal = system: CAKI-1 renal
M14 melanoma = system: M14 melanoma
SF-268 CNS = system: SF-268 CNS
SNB-75 CNS = system: SNB-75 CNS
CCRF-CEM leukemia = system: CCRF-CEM leukemia
M19-MEL melanoma = system: M19-MEL melanoma
KM20L2 colon = system: KM20L2 colon
SF-295 CNS = system: SF-295 CNS
RXF 393 renal = system: RXF 393 renal
DLD-1 colon = system: DLD-1 colon
MOLT-4 leukemia = system: MOLT-4 leukemia
A498 renal = system: A498 renal
NCI-H23 lung = system: NCI-H23 lung
U251 CNS = system: U251 CNS
NCI-H226 lung = system: NCI-H226 lung
OVCAR-4 ovarian = system: OVCAR-4 ovarian
KM12 colon = system: KM12 colon
OVCAR-5 ovarian = system: OVCAR-5 ovarian
UACC-257 melanoma = system: UACC-257 melanoma
SN12C renal = system: SN12C renal
SK-MEL-2 melanoma = system: SK-MEL-2 melanoma
HCT-116 colon = system: HCT-116 colon
MALME-3M melanoma = system: MALME-3M melanoma
K-562 leukemia = system: K-562 leukemia
HT29 colon = system: HT29 colon
HOP-62 NSCLC = system: HOP-62 NSCLC
DMS 273 small cell lung = system: DMS 273 small cell lung
SW-620 colon = system: SW-620 colon
XF 498 CNS = system: XF 498 CNS
NCI-H460 lung = system: NCI-H460 lung
SF-539 CNS = system: SF-539 CNS
HOP-92 NSCLC = system: HOP-92 NSCLC
UO-31 renal = system: UO-31 renal
ACHN renal = system: ACHN renal
NCI-H522 lung = system: NCI-H522 lung
786-0 renal = system: 786-0 renal
LXFL 529 NSCLC = system: LXFL 529 NSCLC
HOP-18 NSCLC = system: HOP-18 NSCLC
LOX IMVI melanoma = system: LOX IMVI melanoma
TK-10 renal = system: TK-10 renal
UACC-62 melanoma = system: UACC-62 melanoma
HCT-15 colon = system: HCT-15 colon
HCC-2998 colon = system: HCC-2998 colon
RPMI-8226 leukemia = system: RPMI-8226 leukemia

Structure (SMILES): N#CC(/C(CCCC(=O)Nc1cccc([N+](=O)[O-])c1)=N\NC(=O)c1c(O)ccc2ccccc12)c1nc2ccccc2s1 (configuration not stated)
- TGI (IGROV1 ovarian): > 100 µM
- TGI (SR leukemia): > 100 µM
- TGI (SNB-19 CNS): > 100 µM
- TGI (OVCAR-3 ovarian): > 100 µM
- TGI (COLO 205 colon): > 100 µM
- TGI (SNB-78 CNS): > 100 µM
- TGI (SK-OV-3 ovarian): > 100 µM
- TGI (HL-60(TB) leukemia): 24.1 µM
- TGI (EKVX NSCLC): > 100 µM
- TGI (SK-MEL-5 melanoma): 93.1 µM
- TGI (A549 NSCLC): > 100 µM
- TGI (OVCAR-8 ovarian): > 100 µM
- TGI (DMS 114 small cell lung): 34.5 µM
- TGI (SK-MEL-28 melanoma): > 100 µM
- TGI (CAKI-1 renal): > 100 µM
- TGI (M14 melanoma): > 100 µM
- TGI (SF-268 CNS): > 100 µM
- TGI (SNB-75 CNS): > 100 µM
- TGI (CCRF-CEM leukemia): > 100 µM
- TGI (M19-MEL melanoma): 46.6 µM
- TGI (KM20L2 colon): > 100 µM
- TGI (SF-295 CNS): > 100 µM
- TGI (RXF 393 renal): > 100 µM
- TGI (DLD-1 colon): > 100 µM
- TGI (MOLT-4 leukemia): > 100 µM
- TGI (A498 renal): > 100 µM
- TGI (NCI-H23 lung): > 100 µM
- TGI (U251 CNS): > 100 µM
- TGI (NCI-H226 lung): 72 µM
- TGI (OVCAR-4 ovarian): > 100 µM
- TGI (KM12 colon): > 100 µM
- TGI (OVCAR-5 ovarian): > 100 µM
- TGI (UACC-257 melanoma): > 100 µM
- TGI (SN12C renal): > 100 µM
- TGI (SK-MEL-2 melanoma): > 100 µM
- TGI (HCT-116 colon): > 100 µM
- TGI (MALME-3M melanoma): > 100 µM
- TGI (K-562 leukemia): > 100 µM
- TGI (HT29 colon): > 100 µM
- TGI (HOP-62 NSCLC): 95.4 µM
- TGI (DMS 273 small cell lung): 68.3 µM
- TGI (SW-620 colon): > 100 µM
- TGI (XF 498 CNS): > 100 µM
- TGI (NCI-H460 lung): > 100 µM
- TGI (SF-539 CNS): 66.3 µM
- TGI (HOP-92 NSCLC): > 100 µM
- TGI (UO-31 renal): > 100 µM
- TGI (ACHN renal): > 100 µM
- TGI (NCI-H522 lung): > 100 µM
- TGI (786-0 renal): > 100 µM
- TGI (LXFL 529 NSCLC): > 100 µM
- TGI (HOP-18 NSCLC): > 100 µM

Structure (SMILES): O=C(CCc1ccccc1)CC1OC(=O)C(Cl)=C1Cl (configuration not stated)
- TGI (IGROV1 ovarian): 40.8 µM
- TGI (SR leukemia): > 100 µM
- TGI (SNB-19 CNS): 38 µM
- TGI (OVCAR-3 ovarian): 38.1 µM
- TGI (COLO 205 colon): 30.9 µM
- TGI (SNB-78 CNS): > 100 µM
- TGI (LOX IMVI melanoma): 40.2 µM
- TGI (SK-OV-3 ovarian): > 100 µM
- TGI (TK-10 renal): 57.7 µM
- TGI (UACC-62 melanoma): 31.7 µM
- TGI (EKVX NSCLC): 66.1 µM
- TGI (SK-MEL-5 melanoma): 47 µM
- TGI (A549 NSCLC): > 100 µM
- TGI (OVCAR-8 ovarian): 41 µM
- TGI (HCT-15 colon): 30.3 µM
- TGI (SK-MEL-28 melanoma): 32.9 µM
- TGI (CAKI-1 renal): 59.1 µM
- TGI (M14 melanoma): 31 µM
- TGI (SF-268 CNS): 79.9 µM
- TGI (SNB-75 CNS): > 100 µM
- TGI (HCC-2998 colon): 32.6 µM
- TGI (CCRF-CEM leukemia): > 100 µM
- TGI (M19-MEL melanoma): 33.8 µM
- TGI (KM20L2 colon): 26.5 µM
- TGI (SF-295 CNS): 87.4 µM
- TGI (RXF 393 renal): 59.8 µM
- TGI (DLD-1 colon): 32.8 µM
- TGI (MOLT-4 leukemia): > 100 µM
- TGI (A498 renal): 66.2 µM
- TGI (NCI-H23 lung): 53.4 µM
- TGI (U251 CNS): 30.4 µM
- TGI (OVCAR-4 ovarian): > 100 µM
- TGI (KM12 colon): 33.8 µM
- TGI (OVCAR-5 ovarian): 35 µM
- TGI (UACC-257 melanoma): 41.1 µM
- TGI (SN12C renal): 38.3 µM
- TGI (SK-MEL-2 melanoma): 36.1 µM
- TGI (HCT-116 colon): 28 µM
- TGI (MALME-3M melanoma): 33.1 µM
- TGI (K-562 leukemia): 88 µM
- TGI (HT29 colon): 58.2 µM
- TGI (HOP-62 NSCLC): 55.6 µM
- TGI (DMS 273 small cell lung): 44 µM
- TGI (SW-620 colon): 25.1 µM
- TGI (XF 498 CNS): 41.4 µM
- TGI (NCI-H460 lung): 96.2 µM
- TGI (RPMI-8226 leukemia): > 100 µM
- TGI (SF-539 CNS): 76.7 µM
- TGI (HOP-92 NSCLC): 41.1 µM
- TGI (UO-31 renal): 34 µM
- TGI (ACHN renal): 38.6 µM
- TGI (NCI-H522 lung): 28.5 µM
- TGI (786-0 renal): 37.5 µM
- TGI (LXFL 529 NSCLC): 29.4 µM
- TGI (HOP-18 NSCLC): 59.6 µM
